Reference: patent publication US20100068150A1, “Selective Caspase Inhibitors” (The Board of Trustees of the Leland Stanford Junior …, priority 2006, published 2010)

Biological target: T1, FL-C7 (full-length caspase-7) (Homo sapiens, UniProt P55210)
T1 construct: the p37 band as the full-length caspase-7 with intact N-terminus (FL-C7); endogenous in cells
T1 sequence (P55210 1-303): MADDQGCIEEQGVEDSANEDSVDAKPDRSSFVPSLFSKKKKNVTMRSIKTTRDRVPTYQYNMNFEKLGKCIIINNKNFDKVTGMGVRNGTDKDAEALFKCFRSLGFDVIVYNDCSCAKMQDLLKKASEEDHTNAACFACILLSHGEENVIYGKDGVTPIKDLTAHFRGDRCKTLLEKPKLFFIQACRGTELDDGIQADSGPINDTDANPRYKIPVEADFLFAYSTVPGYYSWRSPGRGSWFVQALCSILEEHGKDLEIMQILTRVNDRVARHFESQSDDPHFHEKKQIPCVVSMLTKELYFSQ
Experiment: Inhibitor specificity in hypotonic 293 extracts, full-length caspase-7
Format: biochemical
Settings: inhibitor 20 μM for 5 min, then KMB01 30 min
Excerpt: FIGS. 6 A-E illustrate that full-length active caspase-7 has unique inhibitor specificity and is processed to mature forms by downstream executioner caspases. (A) The caspase-3 specific inhibitor causes accumulation of a catalytically active full-length form of caspase-7. Cytosolic extracts from 293 cells were activated with cytochrome c/dATP for the indicated times followed by labeling with KMB01 (left panel) and western blotting with a caspase-7 specific antibody (right panel) as in FIG. 5A. […] (B) The exact same experiment as (A) except extracts from MCF-7 cells were used in place of 293 extracts. (**) indicates forms of caspase-7 that are likely a result of the alternative transcription start site at methionine-45 (C) Quantification of the relative activity of FL-C7 in uninhibited 293 extracts (from FIG. 5A), AB06 treated 293 extracts (from (A)) and uninhibited MCF-7 extracts (from (B)) (D) Inhibitor specificity of full-length and processed forms of caspase-7. Extracts (293) were activated for 5 min with cytochrome c/dATP and then incubated with NP-capped AOMK inhibitors containing the indicated primary amino acid sequences for 5 minutes before KMB01 was added and allowed to label residual caspase active sites for 30 minutes. Samples were analyzed by SDS-PAGE followed by biotin blotting using strepavidin-HRP (left panel) or western blotting for caspase-7 (right panel). Identities of labeled caspases are indicated. (E) Specificity of AB06 after prolonged incubation times. Extracts were treated with AB06 at the indicated concentrations simultaneously with cytochrome c/dATP. At the indicated times after activation, samples were labeled with KMB01 (10 μM) for 30 minutes. Labeled caspases were resolved by SDS-PAGE analysis followed by biotin blotting using strepavidin-HRP.
To further confirm our assignment of the labeled species we treated samples at various activation times with purified recombinant Bir3 domain of XIAP. […]
An additional surprising finding from the inhibitor studies was the overall lack of inhibition of the FL-C7 species by AB06 relative to mature p20 forms of caspase-7. […] Samples were analyzed for active site labeling and protein levels of both full-length and p20 forms of caspase-7 were monitored by western blot (FIG. 6D).
Hypotonic 293 extracts (73 μg of total protein) were activated as described above and allowed to incubate for the indicated times. […] Labeling was carried out for an additional 30 minutes and samples (13.5 μg total protein) were analyzed by SDS-PAGE and biotin blotting as described above.
Hypotonic 293 extracts (73 μg of total protein) were activated at 37° C. for 5 minutes as described above. […] Samples (13.5 μg total protein) were analyzed by SDS-PAGE and biotin blotting as described above

SMILES	inhibition of FL-C7 labeling
Cc1cccc(C)c1C(=O)OCC(=O)[C@H](CC(=O)O)NC(=O)[C@@H](NC(=O)[C@H](CCC(=O)O)NC(=O)[C@H](CC(=O)O)NC(=O)Cc1ccc(O)c([N+](=O)[O-])c1)C(C)C [AB09, Np-D-E- V-D-DMBA]	almost totally inhibited
Cc1cccc(C)c1C(=O)OCC(=O)[C@H](CC(=O)O)NC(=O)[C@@H](NC(=O)[C@H](Cc1ccncc1)NC(=O)[C@H](CC(=O)O)NC(=O)Cc1ccc(O)c([N+](=O)[O-])c1)C(C)C [AB06, Np-D-3-V-D-DMBA]	relatively insensitive to inhibition
